Where “and” joins values, the source holds several entries; their conditions need not be identical. Equal values may be shown once. Toxic doses and inconclusive results are not listed.
Tested on: P388 leukemia ip, CD2F1 mice, survival T/C
Assay: NCI In Vivo Anticancer Drug Screen. Data for tumor model P388 Leukemia (intraperitoneal) in CD2F1 (CDF1) mice
Details: endpoint: median survival time, higher = longer survival
Method in brief: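 Mice carrying the transplanted tumor received test compound or vehicle. Survival was recorded in each group, and the value is the treated-group measurement divided by that of the vehicle-treated control group.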

Cc1[nH]c(=O)[nH]c(=O)c1N(CCF)CCCl
T/C (dose: 0.5 mg/kg/injection, schedule: Q03HX024 (ip), vehicle: acid diluted with saline): 101 % of control
T/C (dose: 1.0 mg/kg/injection, schedule: Q03HX016 (ip), vehicle: acid diluted with saline): 100 % of control
T/C (dose: 1.0 mg/kg/injection, schedule: Q03HX024 (ip), vehicle: acid diluted with saline): 105 % of control
T/C (dose: 1.8 mg/kg/injection, schedule: Q01DX009 (ip), vehicle: saline with Tween-80): 109 % of control
T/C (dose: 2.0 mg/kg/injection, schedule: Q01DX009 (ip), vehicle: acid diluted with saline): 110 % of control
T/C (dose: 2.0 mg/kg/injection, schedule: Q01DX009 (sc), vehicle: acid diluted with saline): 101 % of control
T/C (dose: 2.0 mg/kg/injection, schedule: Q03HX008 (ip), vehicle: acid diluted with saline): 105 % of control
T/C (dose: 2.0 mg/kg/injection, schedule: Q03HX016 (ip), vehicle: acid diluted with saline): 105 % of control
T/C (dose: 2.0 mg/kg/injection, schedule: Q03HX024 (ip), vehicle: acid diluted with saline): 108 % of control
T/C (dose: 2.0 mg/kg/injection, schedule: Q03HX024 (oral), vehicle: acid diluted with saline): 109 % of control
T/C (dose: 2.0 mg/kg/injection, schedule: Q03HX024 (oral), vehicle: other): 107 % of control
T/C (dose: 3.0 mg/kg/injection, schedule: Q01DX009 (ip), vehicle: saline with Tween-80): 109 % of control
T/C (dose: 4.0 mg/kg/injection, schedule: Q01DX005 (ip), vehicle: Klucel (hydroxypropylcellulose) (HPC)): 121 % of control
T/C (dose: 4.0 mg/kg/injection, schedule: Q01DX005 (iv), vehicle: Klucel (hydroxypropylcellulose) (HPC)): 102 % of control
T/C (dose: 4.0 mg/kg/injection, schedule: Q01DX009 (ip), vehicle: acid diluted with saline): 101 % of control
T/C (dose: 4.0 mg/kg/injection, schedule: Q01DX009 (sc), vehicle: acid diluted with saline): 103 % of control
T/C (dose: 4.0 mg/kg/injection, schedule: Q03HX008 (ip), vehicle: acid diluted with saline): 105 % of control
T/C (dose: 4.0 mg/kg/injection, schedule: Q03HX008 (oral), vehicle: other): 105 % of control
T/C (dose: 4.0 mg/kg/injection, schedule: Q03HX016 (oral), vehicle: other): 100 % of control
T/C (dose: 4.0 mg/kg/injection, schedule: Q03HX024 (ip), vehicle: acid diluted with saline): 112 % of control
T/C (dose: 4.0 mg/kg/injection, schedule: Q03HX024 (oral), vehicle: acid diluted with saline): 100 % of control
T/C (dose: 4.0 mg/kg/injection, schedule: Q03HX024 (oral), vehicle: other): 108 % of control
T/C (dose: 4.0 mg/kg/injection, schedule: Q04DX003 (ip), vehicle: acid diluted with saline): 106 % of control
T/C (dose: 5.0 mg/kg/injection, schedule: Q01DX009 (ip), vehicle: saline with Tween-80): 109 % of control
T/C (dose: 6.25 mg/kg/injection, schedule: Q04DX003 (ip), vehicle: saline): 104 % of control
T/C (dose: 8.0 mg/kg/injection, schedule: Q01DX001 (ip), vehicle: acid diluted with saline): 109 % of control
T/C (dose: 8.0 mg/kg/injection, schedule: Q01DX001 (ip), vehicle: saline): 118 % of control
T/C (dose: 8.0 mg/kg/injection, schedule: Q01DX005 (iv), vehicle: Klucel (hydroxypropylcellulose) (HPC)): 119 % of control
T/C (dose: 8.0 mg/kg/injection, schedule: Q01DX009 (ip), vehicle: acid diluted with saline): 116 % of control
T/C (dose: 8.0 mg/kg/injection, schedule: Q01DX009 (oral), vehicle: acid diluted with saline): 109 % of control
T/C (dose: 8.0 mg/kg/injection, schedule: Q01DX009 (oral), vehicle: other): 115 % of control
T/C (dose: 8.0 mg/kg/injection, schedule: Q01DX009 (sc), vehicle: acid diluted with saline): 108 % of control
T/C (dose: 8.0 mg/kg/injection, schedule: Q03HX008 (ip), vehicle: acid diluted with saline): 103 % of control
T/C (dose: 8.0 mg/kg/injection, schedule: Q03HX008 (oral), vehicle: acid diluted with saline): 109 % of control
T/C (dose: 8.0 mg/kg/injection, schedule: Q03HX008 (oral), vehicle: other): 106 % of control
T/C (dose: 8.0 mg/kg/injection, schedule: Q03HX016 (ip), vehicle: acid diluted with saline): 105 % of control
T/C (dose: 8.0 mg/kg/injection, schedule: Q03HX016 (oral), vehicle: acid diluted with saline): 100 % of control
T/C (dose: 8.0 mg/kg/injection, schedule: Q03HX016 (oral), vehicle: other): 106 % of control
T/C (dose: 8.0 mg/kg/injection, schedule: Q03HX024 (oral), vehicle: acid diluted with saline): 104 % of control
T/C (dose: 8.0 mg/kg/injection, schedule: Q03HX024 (oral), vehicle: other): 115 % of control
T/C (dose: 8.0 mg/kg/injection, schedule: Q04DX003 (ip), vehicle: acid diluted with saline): 112 % of control
T/C (dose: 8.0 mg/kg/injection, schedule: Q08DX002 (ip), vehicle: acid diluted with saline): 100 % of control
T/C (dose: 12.5 mg/kg/injection, schedule: Q04DX003 (ip), vehicle: saline): 122 % of control
T/C (dose: 16.0 mg/kg/injection, schedule: Q01DX001 (ip), vehicle: acid diluted with saline): 103 % of control and 118 % of control and 122 % of control
T/C (dose: 16.0 mg/kg/injection, schedule: Q01DX001 (ip), vehicle: saline): 122 % of control
T/C (dose: 16.0 mg/kg/injection, schedule: Q01DX001 (sc), vehicle: acid diluted with saline): 100 % of control
T/C (dose: 16.0 mg/kg/injection, schedule: Q01DX005 (iv), vehicle: Klucel (hydroxypropylcellulose) (HPC)): 121 % of control
T/C (dose: 16.0 mg/kg/injection, schedule: Q01DX009 (ip), vehicle: acid diluted with saline): 150 % of control
T/C (dose: 16.0 mg/kg/injection, schedule: Q01DX009 (oral), vehicle: acid diluted with saline): 113 % of control
T/C (dose: 16.0 mg/kg/injection, schedule: Q01DX009 (oral), vehicle: other): 115 % of control
T/C (dose: 16.0 mg/kg/injection, schedule: Q01DX009 (sc), vehicle: acid diluted with saline): 123 % of control
T/C (dose: 16.0 mg/kg/injection, schedule: Q03HX008 (ip), vehicle: acid diluted with saline): 106 % of control
T/C (dose: 16.0 mg/kg/injection, schedule: Q03HX008 (oral), vehicle: acid diluted with saline): 109 % of control
T/C (dose: 16.0 mg/kg/injection, schedule: Q03HX008 (oral), vehicle: other): 106 % of control
T/C (dose: 16.0 mg/kg/injection, schedule: Q03HX016 (ip), vehicle: acid diluted with saline): 105 % of control
T/C (dose: 16.0 mg/kg/injection, schedule: Q03HX016 (oral), vehicle: acid diluted with saline): 109 % of control
T/C (dose: 16.0 mg/kg/injection, schedule: Q03HX024 (oral), vehicle: acid diluted with saline): 109 % of control
T/C (dose: 16.0 mg/kg/injection, schedule: Q03HX024 (oral), vehicle: other): 100 % of control
T/C (dose: 16.0 mg/kg/injection, schedule: Q04DX003 (ip), vehicle: acid diluted with saline): 108 % of control
T/C (dose: 16.0 mg/kg/injection, schedule: Q04DX003 (oral), vehicle: acid diluted with saline): 113 % of control
T/C (dose: 16.0 mg/kg/injection, schedule: Q04DX003 (oral), vehicle: other): 111 % of control
T/C (dose: 16.0 mg/kg/injection, schedule: Q08DX002 (ip), vehicle: acid diluted with saline): 101 % of control
T/C (dose: 23.0 mg/kg/injection, schedule: Q01DX009 (ip), vehicle: saline with Tween-80): 150 % of control
T/C (dose: 25.0 mg/kg/injection, schedule: Q04DX003 (ip), vehicle: saline): 163 % of control
T/C (dose: 32.0 mg/kg/injection, schedule: Q01DX001 (ip), vehicle: acid diluted with saline): 103 % of control
T/C (dose: 32.0 mg/kg/injection, schedule: Q01DX001 (ip), vehicle: saline): 154 % of control
T/C (dose: 32.0 mg/kg/injection, schedule: Q01DX001 (oral), vehicle: other): 106 % of control
T/C (dose: 32.0 mg/kg/injection, schedule: Q01DX001 (sc), vehicle: acid diluted with saline): 99 % of control
T/C (dose: 32.0 mg/kg/injection, schedule: Q01DX009 (ip), vehicle: acid diluted with saline): 158 % of control
T/C (dose: 32.0 mg/kg/injection, schedule: Q01DX009 (oral), vehicle: acid diluted with saline): 118 % of control
T/C (dose: 32.0 mg/kg/injection, schedule: Q03HX008 (ip), vehicle: acid diluted with saline): 107 % of control
T/C (dose: 32.0 mg/kg/injection, schedule: Q03HX016 (oral), vehicle: acid diluted with saline): 109 % of control
T/C (dose: 32.0 mg/kg/injection, schedule: Q04DX003 (ip), vehicle: acid diluted with saline): 123 % of control
T/C (dose: 32.0 mg/kg/injection, schedule: Q04DX003 (oral), vehicle: acid diluted with saline): 109 % of control
T/C (dose: 32.0 mg/kg/injection, schedule: Q04DX003 (oral), vehicle: other): 108 % of control
T/C (dose: 32.0 mg/kg/injection, schedule: Q08DX002 (ip), vehicle: acid diluted with saline): 101 % of control
T/C (dose: 32.0 mg/kg/injection, schedule: Q08DX002 (oral), vehicle: other): 114 % of control
T/C (dose: 64.0 mg/kg/injection, schedule: Q01DX001 (ip), vehicle: saline): 159 % of control
T/C (dose: 64.0 mg/kg/injection, schedule: Q01DX001 (oral), vehicle: acid diluted with saline): 109 % of control
T/C (dose: 64.0 mg/kg/injection, schedule: Q01DX001 (oral), vehicle: other): 108 % of control
T/C (dose: 64.0 mg/kg/injection, schedule: Q01DX001 (sc), vehicle: acid diluted with saline): 100 % of control
T/C (dose: 64.0 mg/kg/injection, schedule: Q04DX003 (oral), vehicle: acid diluted with saline): 109 % of control
T/C (dose: 64.0 mg/kg/injection, schedule: Q04DX003 (oral), vehicle: other): 124 % of control
T/C (dose: 64.0 mg/kg/injection, schedule: Q08DX002 (oral), vehicle: acid diluted with saline): 109 % of control
T/C (dose: 64.0 mg/kg/injection, schedule: Q08DX002 (oral), vehicle: other): 115 % of control
T/C (dose: 128.0 mg/kg/injection, schedule: Q01DX001 (oral), vehicle: acid diluted with saline): 109 % of control
T/C (dose: 128.0 mg/kg/injection, schedule: Q01DX001 (sc), vehicle: acid diluted with saline): 99 % of control
T/C (dose: 128.0 mg/kg/injection, schedule: Q01DX009 (oral), vehicle: acid diluted with saline): 118 % of control
T/C (dose: 128.0 mg/kg/injection, schedule: Q08DX002 (oral), vehicle: acid diluted with saline): 100 % of control
T/C (dose: 256.0 mg/kg/injection, schedule: Q01DX001 (oral), vehicle: acid diluted with saline): 109 % of control
T/C (dose: 256.0 mg/kg/injection, schedule: Q01DX001 (sc), vehicle: acid diluted with saline): 100 % of control
T/C (dose: 256.0 mg/kg/injection, schedule: Q04DX003 (oral), vehicle: acid diluted with saline): 118 % of control
T/C (dose: 256.0 mg/kg/injection, schedule: Q08DX002 (oral), vehicle: acid diluted with saline): 104 % of control
T/C (dose: 512.0 mg/kg/injection, schedule: Q01DX001 (oral), vehicle: acid diluted with saline): 113 % of control
T/C (dose: 512.0 mg/kg/injection, schedule: Q08DX002 (oral), vehicle: acid diluted with saline): 109 % of control
